# Source: the supplement of paper PMC10307832
# Compound: NC(=O)c1ccc(N(C(N)=O)c2c(F)cccc2F)nc1-c1ccc(F)cc1F [VX-702] + CC(=O)c1c(C)c2cnc(Nc3ccc(N4CCNCC4)cn3)nc2n(C2CCCC2)c1=O [Palbociclib] (partner 0.5 µM)
# Assay: relative viability (nuclei count vs DMSO), 5 days (fraction); higher = more cells survive
# Conditions: first compound 0.02 µM
# Summary of the method: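 Lung cancer cell lines, seeded in 1536-well plates, were treated the following day by pin tool with a single drug or with five library-drug doses (not always all listed) in √10 steps on top of a fixed anchor-drug dose. Cells were fixed and nuclei stained in one step after 5 days, and nuclei were counted. Relative viability is the nuclei count for treated wells divided by that for vehicle wells, reported as medians of duplicate plates.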
row,Cell Line,relative viability
1,ABC-1,0.569
2,CAL-12T,0.427
3,NCI-H1944,0.303
4,NCI-H2085,0.507
5,NCI-H2228,0.604
6,NCI-H441,0.19
7,NCI-H522,1.12
8,EMC-BAC-2,0.5
9,NCI-H2170,0.355
10,UMC-11,0.319
11,NCI-H650,0.349
12,LCLC-103H,0.459
13,HCC-827,0.452
14,COR-L 105,0.38
15,NCI-H2126,0.365
16,NCI-H647,0.349
17,LOU-NH91,0.554
18,HCC-78,0.493
19,HCC-44,1.01
20,NCI-H1651,0.503
21,NCI-H1755,0.494
22,HOP-62,0.487
23,PC-14,0.519
24,NCI-H1650,0.325

row,Cell Line,relative viability
1,ChaGo-K-1,0.942
2,A-427,0.541
3,NCI-H1355,0.411
4,NCI-H1648,0.268
5,NCI-H1792,0.614
6,HCC-15,0.732
7,LU99A,0.407
8,EKVX,0.355
9,COR-L23,0.271
10,NCI-H1437,0.308
11,RERF-LC-KJ,1
12,NCI-H1734,0.347
13,BEN,0.51
14,NCI-H460,0.187
15,H3255,0.304
16,SK-LU-1,0.38
17,NCI-H1793,0.294
18,NCI-H23,0.492
19,SW 1573,0.422
20,NCI-H838,0.225
21,NCI-H2342,0.511
22,EPLC-272H,0.312
23,NCI-H3122,0.243
24,NCI-H1915,0.549

row,Cell Line,relative viability
1,NCI-H727,0.635
2,NCI-H1975,0.497
3,LK-2,0.533
4,HCC-366,0.409
5,NCI-H2087,0.203
6,LCLC-97TM1,0.192
7,NCI-H661,0.413
8,NCI-H2405,0.536
9,NCI-H1993,0.655
10,PC-3 [JPC-3],0.568
11,NCI-H2009,0.247
12,NCI-H2347,0.455
13,NCI-H520,0.229
14,LXF-289,0.616
15,NCI-H358,0.127
16,LC-2-ad,0.496
17,201T,0.349
18,NCI-H1666,0.683
19,NCI-H2023,0.381
20,NCI-H322M,0.458
21,HARA,0.278
22,NCI-H1395,0.565
23,SK-MES-1,0.334

# Same assay, conditions: first compound 0.2 µM
row,Cell Line,relative viability
1,ABC-1,0.633
2,CAL-12T,0.507
3,NCI-H1944,0.326
4,NCI-H2085,0.46
5,NCI-H2228,0.763
6,NCI-H441,0.235
7,NCI-H522,0.988
8,EMC-BAC-2,0.489
9,NCI-H2170,0.374
10,UMC-11,0.327
11,NCI-H650,0.327
12,LCLC-103H,0.498
13,HCC-827,0.462
14,COR-L 105,0.409
15,NCI-H2126,0.323
16,NCI-H647,0.373
17,LOU-NH91,0.532
18,HCC-78,0.486
19,HCC-44,1
20,NCI-H1651,0.494
21,NCI-H1755,0.388
22,HOP-62,0.479
23,PC-14,0.595
24,NCI-H1650,0.35

row,Cell Line,relative viability
1,ChaGo-K-1,0.881
2,A-427,0.52
3,NCI-H1355,0.424
4,NCI-H1648,0.294
5,NCI-H1792,0.587
6,HCC-15,0.639
7,LU99A,0.387
8,EKVX,0.38
9,COR-L23,0.312
10,NCI-H1437,0.318
11,RERF-LC-KJ,1.57
12,NCI-H1734,0.288
13,BEN,0.467
14,NCI-H460,0.156
15,H3255,0.317
16,SK-LU-1,0.355
17,NCI-H23,0.443
18,SW 1573,0.395
19,NCI-H838,0.214
20,NCI-H2342,0.606
21,EPLC-272H,0.343
22,NCI-H3122,0.19
23,NCI-H1915,0.499
24,NCI-H727,0.641

row,Cell Line,relative viability
1,NCI-H1975,0.446
2,LK-2,0.618
3,HCC-366,0.412
4,NCI-H2087,0.228
5,LCLC-97TM1,0.23
6,NCI-H661,0.409
7,NCI-H2405,0.515
8,NCI-H1993,0.696
9,PC-3 [JPC-3],0.517
10,NCI-H2009,0.25
11,NCI-H2347,0.473
12,NCI-H520,0.275
13,LXF-289,0.563
14,NCI-H358,0.141
15,LC-2-ad,0.451
16,201T,0.345
17,NCI-H1666,0.69
18,NCI-H2023,0.347
19,NCI-H322M,0.48
20,HARA,0.227
21,NCI-H1395,0.531
22,SK-MES-1,0.312

# Same assay, conditions: first compound 0.6325 µM
row,Cell Line,relative viability
1,ABC-1,0.826
2,CAL-12T,0.496
3,NCI-H1944,0.337
4,NCI-H2085,0.506
5,NCI-H2228,0.676
6,NCI-H441,0.204
7,NCI-H522,0.83
